These are literature values, as cited in patent US20030181473A1, “Farnesyl protein transferase inhibitor combinations with taxane compounds” (priority 2000, published 2003).

In one series the test system is human tumor cells. The conditions noted are these: combination of paclitaxel and the farnesyl transferase inhibitor, in vitro.
The next series has as its system colon cancer (LoVo). As to conditions: combination of paclitaxel and the farnesyl transferase inhibitor; mouse colon cancer (LoVo) model.

Regarding `Cn1cncc1C(N)(c1ccc(Cl)cc1)c1ccc2c(c1)c(-c1cccc(Cl)c1)cc(=O)n2C` (single isomer, unassigned; (+)) [(+)-6-[amino(4-chlorophenyl)(1-methyl-1H-imidazol-5-yl)methyl]-4-(3-chlorophenyl)-1-methyl-2(1H)-quinolinone], the “anti-tumor effect of the combination” value in the series with human tumor cells and in the series with colon cancer (LoVo) was “additive anti-tumor effect” in each case.
